Assay results from PubChem BioAssay (NCI).
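1) Cells in 96-well plates. 2) Compound, 48 h, 5 concentrations. 3) Linear interpolation between surrounding doses. 4) Unreached endpoint = highest concentration. Abbreviation: GI50, concentration required for 50% inhibition of growth. TGI is the concentration that stops growth completely.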

What was measured:
Assay in all cases: NCI-60 cell line screen, 48 h
COLO 205 colon = test system: COLO 205 colon
EKVX NSCLC = test system: EKVX NSCLC
HCT-15 colon = test system: HCT-15 colon
MDA-N = test system: MDA-N
MOLT-4 leukemia = test system: MOLT-4 leukemia
NCI-H226 lung = test system: NCI-H226 lung
OVCAR-8 ovarian = test system: OVCAR-8 ovarian
SNB-75 CNS = test system: SNB-75 CNS
TK-10 renal = test system: TK-10 renal
UACC-62 melanoma = test system: UACC-62 melanoma

C=CCN1CC2CN=NC2(C#N)C1 (centres undefined)
TGI (COLO 205 colon): > 100 µM | TGI (EKVX NSCLC): > 100 µM | TGI (HCT-15 colon): > 100 µM | TGI (MDA-N): > 100 µM | TGI (MOLT-4 leukemia): > 100 µM | TGI (NCI-H226 lung): > 100 µM | TGI (OVCAR-8 ovarian): > 100 µM | TGI (SNB-75 CNS): > 100 µM | TGI (TK-10 renal): > 100 µM | TGI (UACC-62 melanoma): > 100 µM

O=C1CCC2=C(CCC2)N1CCc1ccc2c(c1)OCO2
TGI (COLO 205 colon): > 100 µM | TGI (EKVX NSCLC): > 100 µM | TGI (HCT-15 colon): > 100 µM | TGI (MDA-N): > 100 µM | TGI (MOLT-4 leukemia): > 100 µM | TGI (NCI-H226 lung): > 100 µM | TGI (SNB-75 CNS): > 100 µM | TGI (TK-10 renal): > 100 µM | TGI (UACC-62 melanoma): > 100 µM

C=C(C)CC1=C(C(=S)NCCO[Si](C)(C)C(C)(C)C)C(OCC)(OCC)C1=O
TGI (COLO 205 colon): 75 µM | TGI (EKVX NSCLC): 34.4 µM | TGI (HCT-15 colon): 47.5 µM | TGI (MDA-N): 43.2 µM | TGI (MOLT-4 leukemia): > 100 µM | TGI (OVCAR-8 ovarian): > 100 µM | TGI (SNB-75 CNS): 36.8 µM | TGI (TK-10 renal): 34.8 µM | TGI (UACC-62 melanoma): 33.4 µM

CC(/C=N/NC1=NCCCCN1)=N\NC1=NCCCCN1
TGI (COLO 205 colon): 57 µM | TGI (EKVX NSCLC): > 100 µM | TGI (HCT-15 colon): > 100 µM | TGI (MDA-N): > 100 µM | TGI (MOLT-4 leukemia): > 100 µM | TGI (NCI-H226 lung): > 100 µM | TGI (OVCAR-8 ovarian): > 100 µM | TGI (SNB-75 CNS): > 100 µM | TGI (TK-10 renal): > 100 µM | TGI (UACC-62 melanoma): > 100 µM

N=C(N)n1[nH]c2c(c1=O)CCC2
TGI (COLO 205 colon): > 100 µM | TGI (HCT-15 colon): > 100 µM | TGI (MDA-N): > 100 µM | TGI (NCI-H226 lung): > 100 µM | TGI (OVCAR-8 ovarian): > 100 µM | TGI (SNB-75 CNS): > 100 µM | TGI (TK-10 renal): > 100 µM | TGI (UACC-62 melanoma): > 100 µM

CCOC(=O)/C=C(/C(=O)OCC)n1c(=O)c(C)cn(C2CC(N=[N+]=[N-])C(CO)O2)c1=O (centres undefined)
TGI (COLO 205 colon): 30.1 µM | TGI (EKVX NSCLC): 94 µM | TGI (HCT-15 colon): > 100 µM | TGI (MDA-N): > 100 µM | TGI (MOLT-4 leukemia): 25.6 µM | TGI (NCI-H226 lung): > 100 µM | TGI (OVCAR-8 ovarian): > 100 µM | TGI (SNB-75 CNS): > 100 µM | TGI (TK-10 renal): > 100 µM | TGI (UACC-62 melanoma): > 100 µM

Cc1ccnc(NC(=S)Nc2ccccc2Cl)c1
TGI (COLO 205 colon): > 100 µM | TGI (EKVX NSCLC): > 100 µM | TGI (HCT-15 colon): > 100 µM | TGI (MDA-N): > 100 µM | TGI (MOLT-4 leukemia): > 100 µM | TGI (NCI-H226 lung): > 100 µM | TGI (OVCAR-8 ovarian): > 100 µM | TGI (SNB-75 CNS): 71.7 µM | TGI (TK-10 renal): > 100 µM | TGI (UACC-62 melanoma): > 100 µM

O=C(NCCO)c1c(O)c2ccccc2[nH]c1=O
TGI (COLO 205 colon): > 100 µM | TGI (EKVX NSCLC): > 100 µM | TGI (HCT-15 colon): > 100 µM | TGI (MDA-N): > 100 µM | TGI (MOLT-4 leukemia): > 100 µM | TGI (NCI-H226 lung): > 100 µM | TGI (OVCAR-8 ovarian): > 100 µM | TGI (SNB-75 CNS): > 100 µM | TGI (TK-10 renal): > 100 µM

CC(O)(c1ccccc1)c1nccc2ccccc12 (centres undefined)
TGI (COLO 205 colon): > 100 µM | TGI (HCT-15 colon): > 100 µM | TGI (MDA-N): 53.7 µM | TGI (MOLT-4 leukemia): > 100 µM | TGI (NCI-H226 lung): > 100 µM | TGI (OVCAR-8 ovarian): > 100 µM | TGI (SNB-75 CNS): > 100 µM | TGI (TK-10 renal): > 100 µM | TGI (UACC-62 melanoma): > 100 µM

CCCCNC(=S)/N=C/c1c(O)c2ccccc2oc1=O
TGI (COLO 205 colon): > 100 µM | TGI (EKVX NSCLC): > 100 µM | TGI (HCT-15 colon): > 100 µM | TGI (MDA-N): > 100 µM | TGI (MOLT-4 leukemia): > 100 µM | TGI (NCI-H226 lung): > 100 µM | TGI (OVCAR-8 ovarian): > 100 µM | TGI (SNB-75 CNS): > 100 µM | TGI (TK-10 renal): > 100 µM

O=C(c1ccc(Cl)cc1)N(C(=S)N1CCN(c2ccccn2)CC1)c1ccccc1
TGI (COLO 205 colon): > 100 µM | TGI (HCT-15 colon): > 100 µM | TGI (MOLT-4 leukemia): > 100 µM | TGI (NCI-H226 lung): > 100 µM | TGI (OVCAR-8 ovarian): > 100 µM | TGI (SNB-75 CNS): > 100 µM | TGI (TK-10 renal): > 100 µM | TGI (UACC-62 melanoma): > 100 µM

C[C@]12CCC(=O)C=C1CC[C@@H]1[C@@H]2C(=O)C[C@@]2(C)[C@H]1CC[C@]2(O)C(=O)CO
TGI (COLO 205 colon): > 100 µM | TGI (EKVX NSCLC): > 100 µM | TGI (HCT-15 colon): > 100 µM | TGI (MOLT-4 leukemia): > 100 µM | TGI (NCI-H226 lung): > 100 µM | TGI (OVCAR-8 ovarian): > 100 µM | TGI (SNB-75 CNS): > 100 µM | TGI (TK-10 renal): > 100 µM

COC(=O)c1ccc(C)cc1C1CN=NC12Cc1cc(C)c(C)cc1C2=O (centres undefined)
TGI (EKVX NSCLC): 99.7 µM | TGI (HCT-15 colon): > 100 µM | TGI (MDA-N): > 100 µM | TGI (MOLT-4 leukemia): 93 µM | TGI (NCI-H226 lung): > 100 µM | TGI (OVCAR-8 ovarian): > 100 µM | TGI (SNB-75 CNS): > 100 µM | TGI (TK-10 renal): > 100 µM

Cc1nnc(N)nc1/C=C\c1cccs1
TGI (COLO 205 colon): > 100 µM | TGI (EKVX NSCLC): 55.6 µM | TGI (HCT-15 colon): 29.6 µM | TGI (MOLT-4 leukemia): > 100 µM | TGI (NCI-H226 lung): 49.4 µM | TGI (OVCAR-8 ovarian): 44.5 µM | TGI (TK-10 renal): > 100 µM | TGI (UACC-62 melanoma): 49.4 µM

O=C1C[C@H](c2ccccc2)C2(C(=O)c3ccccc3C2=O)[C@@H](c2ccccc2)C1
TGI (COLO 205 colon): 53.6 µM | TGI (HCT-15 colon): > 100 µM | TGI (MDA-N): 81 µM | TGI (MOLT-4 leukemia): > 100 µM | TGI (NCI-H226 lung): 69.1 µM | TGI (OVCAR-8 ovarian): > 100 µM | TGI (SNB-75 CNS): > 100 µM | TGI (UACC-62 melanoma): 26.7 µM

O=C1C=CC2(O[C@@H](Cc3ccccc3)[C@H](Cc3ccccc3)O2)C(SC(=O)c2ccccc2)C1 (some centres undefined)
TGI (COLO 205 colon): 3.14 µM | TGI (HCT-15 colon): 1.71 µM | TGI (MDA-N): 5.22 µM | TGI (MOLT-4 leukemia): 0.651 µM | TGI (NCI-H226 lung): 3.2 µM | TGI (OVCAR-8 ovarian): 0.549 µM | TGI (SNB-75 CNS): 3.41 µM | TGI (TK-10 renal): 4.09 µM | TGI (UACC-62 melanoma): 5.04 µM

CC1CCC2c3c([nH]c4ccccc34)C3C(=O)N(C4CCCCC4)C(=O)C3C2C1 (centres undefined)
TGI (COLO 205 colon): > 100 µM | TGI (EKVX NSCLC): 39.6 µM | TGI (HCT-15 colon): > 100 µM | TGI (MDA-N): > 100 µM | TGI (NCI-H226 lung): 36 µM | TGI (OVCAR-8 ovarian): 42.5 µM | TGI (SNB-75 CNS): 8.51 µM | TGI (TK-10 renal): 27.1 µM | TGI (UACC-62 melanoma): 28.8 µM

Cc1cc2nc3n(c2cc1C)C(c1c(F)cccc1F)SC3 (centres undefined)
TGI (COLO 205 colon): 44.6 µM | TGI (EKVX NSCLC): 75.4 µM | TGI (HCT-15 colon): > 10 µM | TGI (MOLT-4 leukemia): 47 µM | TGI (NCI-H226 lung): 23.8 µM | TGI (OVCAR-8 ovarian): > 100 µM | TGI (SNB-75 CNS): > 100 µM | TGI (TK-10 renal): > 100 µM | TGI (UACC-62 melanoma): > 10 µM

CN(N)C(=O)NCCCl
TGI (COLO 205 colon): > 100 µM | TGI (EKVX NSCLC): > 100 µM | TGI (HCT-15 colon): > 100 µM | TGI (MDA-N): > 100 µM | TGI (MOLT-4 leukemia): > 100 µM | TGI (NCI-H226 lung): 6.42 µM | TGI (SNB-75 CNS): > 100 µM | TGI (TK-10 renal): > 100 µM | TGI (UACC-62 melanoma): > 100 µM

CC(=O)c1ccc(NC(=O)/C(=N\NC(N)=O)C(C#N)CC(C)(C)C=O)cc1 (centres undefined)
TGI (COLO 205 colon): > 100 µM | TGI (EKVX NSCLC): > 100 µM | TGI (HCT-15 colon): > 100 µM | TGI (MOLT-4 leukemia): > 100 µM | TGI (NCI-H226 lung): > 100 µM | TGI (OVCAR-8 ovarian): > 100 µM | TGI (SNB-75 CNS): > 100 µM | TGI (TK-10 renal): > 100 µM | TGI (UACC-62 melanoma): > 100 µM

Oc1c(I)cc(I)cc1CNCCCN(Cc1ccccn1)Cc1ccccn1
GI50 (COLO 205 colon): 1.65 µM | TGI (COLO 205 colon): 5.99 µM | GI50 (EKVX NSCLC): 1 µM | TGI (EKVX NSCLC): 2.38 µM | GI50 (HCT-15 colon): 1.13 µM | TGI (HCT-15 colon): 2.79 µM | GI50 (MOLT-4 leukemia): 1.18 µM | TGI (MOLT-4 leukemia): 2.92 µM | GI50 (NCI-H226 lung): 0.902 µM | TGI (NCI-H226 lung): 2 µM | GI50 (OVCAR-8 ovarian): 1.25 µM | TGI (OVCAR-8 ovarian): 3.27 µM | GI50 (SNB-75 CNS): 0.836 µM | TGI (SNB-75 CNS): 4.32 µM | GI50 (TK-10 renal): 0.922 µM | TGI (TK-10 renal): 1.8 µM | GI50 (UACC-62 melanoma): 0.907 µM | TGI (UACC-62 melanoma): 1.74 µM

COc1ccc(C2C(C(=O)O)=C(COC(C)=O)Oc3cc4c(cc32)OCO4)cc1 (centres undefined)
TGI (COLO 205 colon): > 100 µM | TGI (EKVX NSCLC): > 100 µM | TGI (HCT-15 colon): > 100 µM | TGI (MOLT-4 leukemia): > 100 µM | TGI (OVCAR-8 ovarian): > 100 µM | TGI (SNB-75 CNS): > 100 µM | TGI (TK-10 renal): > 100 µM | TGI (UACC-62 melanoma): > 100 µM
